Measured values taken from patent publication US20230064254A1, “THERAPEUTIC AGENT CONTAINING FUSED PYRIMIDINE COMPOUND AS ACTIVE INGREDIENT” (TAIHO PHARMACEUTICAL CO., LTD., priority 2019, published 2023).

What was measured:
mouse B cells = assay: Effect of inhibiting IgG production in mouse B cells; format: cell-based; settings: CD43-negative B cells from BALB/c mouse spleen, anti-CD40 antibody and IL-4 stimulation, cultured 8 days, ELISA; FIG. 1
Procedure: The present test was carried out with reference to the Non-Patent literature (Castigli et al., J Allergy Clin Immunol 2007 120(4): 885-91). A CD43-negative B cell fraction was separated from the spleen collected from BALB/c mice, and was then suspended in a 10% FBS-containing RPMI1640 culture medium, to which an anti-CD40 antibody and IL-4 had been added. A fumarate of Compound 1 was serially diluted with DMSO, and was then added to a plate, at the same time as the seeding of the cells onto the plate. A 10% FBS-containing RPMI culture medium, to which neither an anti-CD40 antibody nor IL-4 had been added, was used as a control. DMSO, which was added to a plate at the same time as the seeding of the cells on the plate, was defined as a vehicle. The cells were cultured for 8 days at 37° C. in a CO2 incubator, and thereafter, a culture supernatant was recovered. Using an anti-IgG antibody ELISA kit (Thermo Fisher Scientific), the IgG concentration in the culture supernatant was measured.

[1] = system: Human monocytic cells THP-1; assay: Inhibition of TNFα cytokine production by IgG stimulation; format: cell-based; settings: THP-1 cells on solid-phased human IgG, cultured 4 hours, ELISA; FIG. 2
Procedure: The present test was carried out with reference to the Non-Patent literature (Chang et al., Arthritis Res Ther 2011 13(4): R115). Human monocytic cells THP-1 suspended in a 10% FBS-containing RPMI1640 culture medium were seeded on a 96-well plate, on which human IgG had been solid-phased. A fumarate of Compound 1 was serially diluted with DMSO, and was then added to the plate, on which the cells had been seeded. The cells seeded into a well of the plate, in which IgG had not been solid-phased, were used as a control. DMSO, which was added to the plate at the same time as the seeding of the cells, was defined as a vehicle. The cells were cultured for 4 hours at 37° C. in a CO2 incubator, and thereafter, a culture supernatant was recovered. Using an anti-TNFα ELISA kit (R & D system), the concentration of TNFα in the culture supernatant was measured.

HIGA mice = assay: Inhibition of decrease in renal function in IgA nephropathy mouse models (HIGA mice), blood urea nitrogen; format: in vivo; settings: for blood urea nitrogen level (BUN), compared with the vehicle group: 10 mpk orally once a day for 6 weeks, FIG. 3, 10 mg/kg
Procedure: The present test was carried out, using HIGA mice that had been reported as mouse models of IgA nephropathy (Muso et al., Kidney International 1996 50: 1946-1957). A vehicle, a fumarate of Compound 1, or Ibrutinib (Comparative Example 1) was orally administered to 14-week-old to 16-week-old HIGA mice (Japan SLC, Inc.) once a day, continuously for 6 weeks. The control mice were not IgA nephropathy mouse models (HIGA mice), but were Balb/c mice (Japan SLC, Inc.) with the same age in weeks as described above. The vehicle was 0.5% HPMC. The daily doses were set as the following: the vehicle: 10 ml/kg, the fumarate of Compound 1: 10 mpk, and Ibrutinib: 30 mpk. […] Peripheral blood was collected from […], and the urea nitrogen level in the blood was measured. Using UREA NITROGEN (BUN) Colorimetric Detection Kit (Arbor Assays), the urea nitrogen level in the blood was measured.

[2] = AUC comparison of fumarate of Compound 1 and Ibrutinib; format: in vivo; settings: fumarate of Compound 1 (1 mpk) compared with Ibrutinib (3 mpk)

Row | SMILES | IgG concentration in the culture supernatant (IgG production) (mouse B cells) | concentration of TNFα in the culture supernatant (TNFα production) [1] | blood urea nitrogen level (BUN), compared with the vehicle group (HIGA mice) | medicinal effects in HIGA mice (blood urea nitrogen level) (HIGA mice; orally once a day for 6 weeks, fumarate of Compound 1 10 mpk, Ibrutinib 30 mpk) | blood urea nitrogen level (BUN), compared with Comparative Example 1 (Ibrutinib) (HIGA mice; fumarate of Compound 1 10 mpk vs Ibrutinib 30 mpk, orally once a day for 6 weeks, FIG. 3) | AUC values [2]
1 | C=CC(=O)N1CCC[C@@H](n2nc(C(=O)Nc3nc4ccccc4o3)c3c(N)ncnc32)C1 [Compound 1, (R)-1-(1-acryloylpiperidin-3-yl)-4-amino-N-(benzo[d]oxazol-2-yl)-1H-pyrazolo[3,4-d]pyrimidine-3-carboxamide] | inhibited IgG production in a dose-dependent manner | inhibited TNFα production in a dose-dependent manner | significantly reduce the blood urea nitrogen level (BUN) | exhibited excellent medicinal effects |  | 
2 | C=CC(=O)N1CCC[C@@H](n2nc(C(=O)Nc3nc4ccccc4o3)c3c(N)ncnc32)C1 [fumarate of Compound 1, (R)-1-(1-acryloylpiperidin-3-yl)-4-amino-N-(benzo[d]oxazol-2-yl)-1H-pyrazolo[3,4-d]pyrimidine-3-carboxamide] |  |  | inhibits an increase in the blood urea nitrogen level |  | significantly reduces the blood urea nitrogen level | equivalent AUC values
3 | C=CC(=O)N1CCC[C@@H](n2nc(-c3ccc(Oc4ccccc4)cc3)c3c(N)ncnc32)C1 [Ibrutinib, reference compound] |  |  |  |  |  | equivalent AUC values
